Laboratory results: patent publication US5792635A, “Method of inhibiting the sodium/proton exchanger NHE3 and method of inhibiting growth by administering squalamine” (priority 1995, dated 1998)
In brackets after ≈: the same amount, converted by molar mass. Entries after “also recorded” stand apart in the source; their conditions may differ.

Legend:
[1] = tested on: vitelline capillaries of 3- to 5-day chick embryo; experiment: Chick embryo vitelline capillary regression assay; format: in vivo; design: key to vascular reactivity: +: Vascular reactivity; 0: No vascular reactivity; +/-: Equivocal reactivity; conditions: for vascular reactivity: 60 minutes
Description: (§1) Using the chick embryo vitelline capillaries assay, compounds were tested for their ability to induce capillary regression. Each compound was applied in 0.1 ml of 15% Ficol 400 and PBS onto the embryo, and vascular regression was assessed after 60 minutes.
The 3-day chick embryo consists of an embryonic disc from which numerous vessels emerge and return, forming a "figure 8"-shaped structure--the embryo in the center with vascular loops extending outward over both poles. […] Following a lag period of around 15 minutes, the constriction of continuity between capillary and secondary vessels, generally on the "venous" side, was observed. Continued pulsatile blood flow progressed, resulting in a "swelling" of the blind tube, followed by a pinching off of the remaining connection and formation of an enclosed vascular sac resembling a "blood island." This process progressed until only the largest vessels remained intact.

[2] = tested on: human microvascular cells; experiment: Inhibition of endothelial cell cord formation in vitro; format: cell-based; conditions: for minimal effective concentration: Homo sapiens, Endothelial cell, Table II, read-out: Minimum Effective Concentration, Cord Formation
From the text: Endothelial cells have the capacity in vitro to form tubular aggregates resembling capillaries in various early stages of formation. This conversion occurs under relatively specific conditions, in which essential growth factors along with an effective substratum are provided. It has been shown that both the interaction of growth factors with the endothelial cell and its attachment to a substratum activate the NHE. The activation of this exchanger is believed to be required for subsequent morphologic transformation of the endothelial cell into a multicellular tubular structure.
To assess the effect of compounds on the cord-like structures formed by human microvascular cells when plated in the presence of VEGF (Vascular Endothelial Growth Factor) and basic fibroblast growth factor on a collagen matrix, a standard cord formation assay was used.

Xenopus tadpoles = experiment: Tadpole assay
HM = HM MTT assay (Table II); format: cell-based; conditions: read-out: Minimum Effective Concentration, HM MTT assay
LLC = LLC MTT assay (Table II); format: cell-based; conditions: Lewis lung carcinoma, read-out: Minimum Effective Concentration, LLC MTT
chick embryo = experiment: Chick embryo diss. assay (Table II); format: in vivo
Description: as §1

P. = experiment: Antibiotic activity, MIC; format: cell-based; conditions: read-out: MIC Values
E. Coli = experiment: Antibiotic activity, MIC; format: cell-based; conditions: Escherichia coli
C. albicans = experiment: Antibiotic activity, MIC; format: cell-based; conditions: Candida albicans
S. aureus = experiment: Antibiotic activity, MIC; format: cell-based; conditions: Staphylococcus aureus
[3] = tested on: L1210 lymphoblastic leukemia cells; experiment: Mouse model of leukemia (L1210), survival and hematological profile; conditions: L1210-inoculated mice
From the text: C57B mice were inoculated with L1210 lymphoblastic leukemia cells at an inoculum that causes leukemia in 100% of animals.

Compound: COC(=O)CC[C@@H](C)[C@H]1CC[C@H]2[C@@H]3[C@H](O)C[C@@H]4C[C@@H](NCCCNCCCCNCCCN)CC[C@]4(C)[C@H]3CC[C@]12C [Compound 411]
- vascular reactivity ([1]; 0.1 μg applied): 0

Compound: C[C@H](CCC(=O)O)[C@H]1CC[C@H]2[C@@H]3[C@H](O)C[C@@H]4C[C@@H](NCCCNCCCCNCCCN)CC[C@]4(C)[C@H]3CC[C@]12C [Compound 413]
- endothelial cord formation ([2]; 0.1 μg/ml): -
- functional similarity in tadpole assay (Xenopus tadpoles; Xenopus tadpole assay): effects like those produced by compound 1436
- vascular reactivity ([1]; 1 μg applied): 0

Compound: CC(C)[C@@H](CC[C@@H](C)[C@H]1CC[C@H]2[C@@H]3[C@H](O)C[C@H]4C[C@@H](NCCCNCCCCNCCCN)CC[C@]4(C)[C@H]3CC[C@]12C)OS(=O)(=O)O [drawing 119]
- minimal effective concentration (HM): 6.9 µg/mL
- minimal effective concentration (LLC): 16.7 µg/mL

Compound: C[C@H](CCC(=O)O)[C@H]1CC[C@H]2[C@@H]3[C@H](O)C[C@@H]4C[C@H](NCCCNCCCCNCCCN)CC[C@]4(C)[C@H]3CC[C@]12C [Compound 412]
- endothelial cord formation ([2]; 10.0 μg/ml): +
- functional similarity in tadpole assay (Xenopus tadpoles; Xenopus tadpole assay): pharmacologic activity similar to that seen for FX 3

Compound: CC(COS(=O)(=O)O)C(=O)CC[C@@H](C)[C@H]1CC[C@H]2[C@@H]3[C@H](O)C[C@H]4C[C@@H](NCCCNCCCCN)CC[C@]4(C)[C@H]3CC[C@]12C (single isomer, unassigned) [Compound 1360]
- observed response in tadpole (Xenopus tadpoles; 10 μg/ml, stage 59-60 Xenopus): Swelling and lysis of certain erythrocytes occurred; also recorded: Subsequent tissue breakdown occurred in areas of tail surrounding these nuclear plugs; also recorded: extensive vasocclusion occurred within 60 minutes throughout the tail
- effect on chick embryo blood ([1]; within 20 minutes): the blood circulating through the embryonic vessels exhibited a brighter red color

Compound: COC(=O)CCC(C)[C@H]1CCC2C3C(CC[C@@]21C)[C@@]1(C)CCC(NCCCNCCCCNCCCN)C[C@@H]1C[C@H]3O (stereo partly drawn)
- Minimum Effective Concentration, chick embryo diss. assay (chick embryo): > 10 µg

Compound: CC(C)C(O)CC[C@@H](C)[C@H]1CC[C@H]2[C@@H]3[C@H](O)C[C@H]4C[C@@H](NCCCNCCCCN(C)C)CC[C@]4(C)[C@H]3CC[C@]12C (stereo partly drawn)
- MIC (P.): 129 µg/mL (≈ 224 µM)

Compound: COC(=O)CCC(C)[C@H]1CCC2C3CC[C@H]4C[C@H](NCCCNCCCCNCCCN)CC[C@]4(C)C3CC[C@@]21C (stereo partly drawn) [drawing 108]
- minimal effective concentration (LLC): 6.8 µg/mL
- Minimum Effective Concentration, chick embryo diss. assay (chick embryo): > 1 µg

Compound: C[C@H](CCC(=O)O)[C@H]1CC[C@H]2[C@@H]3[C@H](O)C[C@H]4C[C@@H](NCCCNCCCCN)CC[C@]4(C)[C@H]3CC[C@]12C [Compound 381]
- vascular reactivity ([1]; 1 μg applied): 0

Compound: COC(=O)CCC(C)[C@H]1CCC2C3CC[C@@H]4C[C@H](NCCN)CC[C@]4(C)C3C[C@H](O)[C@@]21C (stereo partly drawn) [drawing 114]
- minimal effective concentration (HM): 2.4 µg/mL

Compound: CC(CCCOS(=O)(=O)O)[C@H]1CCC2C3CC[C@H]4C[C@@H](NCCCNCCCCN)CC[C@]4(C)C3CC[C@@]21C (stereo partly drawn)
- Minimum Effective Concentration, chick embryo diss. assay (chick embryo): > 10 µg

Compound: CC(CCC(=O)O)[C@H]1CCC2C3C[C@@H](O)[C@H]4C[C@@H](NCCN)CC[C@]4(C)C3CC[C@@]21C (stereo partly drawn) [drawing 105]
- Minimum Effective Concentration, chick embryo diss. assay (chick embryo): 1 µg

Compound: CC(C)CCC[C@@H](C)[C@H]1CC[C@H]2[C@@H]3CC[C@H]4C[C@H](NCCCCN)CC[C@]4(C)[C@H]3CC[C@]12C
- MIC (E. Coli): > 256 µg/mL
- MIC (C. albicans): 64 µg/mL (≈ 139 µM)
- MIC (P.): > 256 µg/mL
- MIC (S. aureus): 4 µg/mL (≈ 8.72 µM)

Compound: CC(C)CCCC(C)[C@H]1CCC2C3C(CC[C@@]21C)[C@@]1(C)CC[C@H](NCCCNCCCCN)C[C@@H]1C[C@H]3O (stereo partly drawn) [drawing 87]
- Minimum Effective Concentration, chick embryo diss. assay (chick embryo): 1.10 µg

Compound: COC(=O)CCC(C)[C@H]1CCC2C3C(CC[C@@]21C)[C@@]1(C)CC[C@@H](NCCN)C[C@H]1C[C@H]3O (stereo partly drawn) [drawing 93]
- minimal effective concentration (HM): 2.6 µg/mL
- minimal effective concentration [2]: 10 µg/mL
- Minimum Effective Concentration, chick embryo diss. assay (chick embryo): 0.01 µg

Compound: CC(C)CCCC(C)[C@H]1CCC2C3C(CC[C@@]21C)[C@@]1(C)CC[C@@H](NCCCNCCCCN)C[C@@H]1C[C@H]3O (stereo partly drawn) [drawing 86]
- minimal effective concentration (HM): 4 µg/mL
- Minimum Effective Concentration, chick embryo diss. assay (chick embryo): > 10 µg

Compound: CC(C)[C@@H](CC[C@@H](C)[C@H]1CC[C@H]2[C@@H]3[C@H](O)C[C@H]4C[C@@H](NCCCNCCCCN)CC[C@]4(C)[C@H]3CC[C@]12C)OS(=O)(=O)O [drawing 116]
- minimal effective concentration (HM): 7.8 µg/mL

Compound: CC(CCC(=O)O)[C@H]1CCC2C3C(CC[C@@]21C)[C@@]1(C)CC[C@H](NCCCNCCCCNCCCN)C[C@H]1C[C@H]3O (stereo partly drawn)
- minimal effective concentration [2]: > 10 µg/mL

Compound: COC(=O)CCC(C)[C@H]1CCC2C3C(CC[C@@]21C)[C@@]1(C)CC[C@H](NCCCNCCCCNCCCN)C[C@H]1C[C@H]3O (stereo partly drawn) [drawing 109]
- minimal effective concentration [2]: 10 µg/mL
- Minimum Effective Concentration, chick embryo diss. assay (chick embryo): > 1 µg

Compound: C[C@H](CCC(=O)O)[C@H]1CC[C@H]2[C@@H]3[C@H](O)C[C@@H]4C[C@@H](NCCN)CC[C@]4(C)[C@H]3CC[C@]12C [Compound 415]
- endothelial cord formation ([2]; 10.0 μg/ml): +/T
- activity in vitelline capillary regression assay ([1]; Table 5): especially active

Compound: CC(CCC(CO)(OS(=O)(=O)O)C(C)C)[C@H]1CCC2C3C(CC[C@@]21C)[C@@]1(C)CC[C@H](NCCCNCCCCN)C[C@@H]1C[C@H]3O (stereo partly drawn)
- Minimum Effective Concentration, chick embryo diss. assay (chick embryo): > 1 µg

Compound: COC(=O)CC[C@@H](C)[C@H]1CC[C@H]2[C@@H]3[C@H](O)C[C@@H]4C[C@@H](NCCN)CC[C@]4(C)[C@H]3CC[C@]12C [Compound 409]
- functional similarity in tadpole assay (Xenopus tadpoles; Xenopus tadpole assay): functionally similar to compound 1437
- vascular reactivity ([1]; 1 μg applied): 0

Compound: N.N.[Cl][Pt][Cl] [Cisplatin, reference compound]
- hematological profile [3]: profound anemia by day 28

Compound: CC(CCC(=O)O)[C@H]1CCC2C3CC[C@H]4C[C@@H](NCCCNCCCCN)CC[C@]4(C)C3CC[C@@]21C (stereo partly drawn)
- minimal effective concentration (HM): 13.8 µg/mL
- Minimum Effective Concentration, chick embryo diss. assay (chick embryo): 0.001 µg

Compound: CC(CCC(=O)O)[C@H]1CCC2C3C(CC[C@@]21C)[C@@]1(C)CC[C@H](NCCN)C[C@H]1C[C@H]3O (stereo partly drawn) [drawing 113]
- minimal effective concentration [2]: > 10 µg/mL

Compound: C[C@H](CCC(=O)O)[C@H]1CC[C@H]2[C@@H]3[C@H](O)C[C@@H]4C[C@H](NCCN)CC[C@]4(C)[C@H]3CC[C@]12C [Compound 414]
- functional similarity in tadpole assay (Xenopus tadpoles; Xenopus tadpole assay): pharmacologic activity similar to Fraction 1
- potency in tadpole assay relative to Fraction 1 (Xenopus tadpoles; Xenopus tadpole assay): potencies comparable to that of Fraction 1
- vascular reactivity ([1]; 1 μg applied): 0

Compound: COC(=O)CCC(C)[C@H]1CCC2C3CC[C@H]4C[C@@H](NCCCNCCCCNCCCN)CC[C@]4(C)C3CC[C@@]21C (stereo partly drawn) [drawing 99]
- minimal effective concentration (HM): 5 µg/mL

Compound: COC(=O)CCC(C)[C@H]1CCC2C3C(CC[C@@]21C)[C@@]1(C)CC[C@H](NCCN)C[C@H]1C[C@H]3O (stereo partly drawn) [drawing 92]
- Minimum Effective Concentration, chick embryo diss. assay (chick embryo): > 1 µg

Compound: CC(C)CCC[C@@H](C)[C@H]1CC[C@H]2[C@@H]3CC[C@H]4C[C@@H](NCCCCN)CC[C@]4(C)[C@H]3CC[C@]12C
- MIC (E. Coli): > 256 µg/mL
- MIC (C. albicans): > 256 µg/mL
- MIC (P.): > 256 µg/mL
- MIC (S. aureus): 16 µg/mL (≈ 34.9 µM)

Compound: CC(CCC(=O)O)[C@H]1CCC2C3C(CC[C@@]21C)[C@@]1(C)CC[C@H](NCCCNCCCCN)C[C@@H]1C[C@H]3O (stereo partly drawn)
- Minimum Effective Concentration, chick embryo diss. assay (chick embryo): > 10 µg

Compound: CC(CCC(=O)O)[C@H]1CCC2C3C(CC[C@@]21C)[C@@]1(C)CC[C@@H](NCCCNCCCCNCCCN)C[C@H]1C[C@H]3O (stereo partly drawn) [drawing 110]
- minimal effective concentration (HM): 18.1 µg/mL
- minimal effective concentration [2]: > 10 µg/mL

Compound: CC(C)CCCC(C)[C@H]1CCC2C3C(CC[C@@]21C)[C@@]1(C)CC[C@H](N)C[C@@H]1C[C@H]3O (stereo partly drawn) [drawing 88]
- Minimum Effective Concentration, chick embryo diss. assay (chick embryo): 1 µg
